Key:
Format in all cases: cell-based
[1] = test system: Crypthecodinium cohnii 30772; experiment: Culture of C. cohnii with glucose as main carbon source with propionic acid in the medium (Example 2); settings: propionic acid 1% v/v, glucose 60 g/L
Procedure: The growth medium used for the third culture contained (initially) propionic acid (1% v/v), glucose (60 g/L—autoclaved separately), yeast extract (7.5 g/L) and sea salts (25 g). The growth medium used for the fourth culture was the same but with the propionic acid omitted. In each case, the pH was 6.5. The microorganism used was Crypthecodinium cohnii 30772. For each of the third and fourth cultures, the Crypthecodinium cohnii was grown in a 5 L fermenter. The cultures were initiated by inoculating 3.5 L of the appropriate growth medium with 350 ml of a 3 day old shaking-flask culture of Crypthecodinium cohnii. The inoculum for the third culture was prepared using the same growth medium as that used in the third culture (i.e., with propionic acid) and the inoculum for the fourth culture was prepared using the same growth medium as that used in the fourth culture (i.e., without propionic acid). Cultures were aerated at 1 volume of air per volume of culture per minute and the dissolved oxygen concentration was maintained above 30% of air saturation by increasing the stirrer speed as required, from an initial speed of 300 rpm. The growth temperature was 27° C. and the pH was maintained at 6.5 by addition of KOH (2 M) and H2SO4 (1 M).

[2] = test system: Crypthecodinium cohnii (ATCC 30541); experiment: Culture of C. cohnii 30541 in acetic acid pH-stat fermenters with propionic acid (Example 3)
Procedure: The value of including propionic acid in the culture medium was also shown with another strain of Crypthecodinium cohnii (ATCC 30541). This strain was grown on acetic acid in pH-stat fermenters as described in Example 1 with and without the inclusion of propionic acid at 1% of the volume of the initial culture medium. [table]

[3] = test system: Crypthecodinium cohnii ATCC 30772; experiment: Culture of C. cohnii in acetic acid pH-stat fermenter with propionic acid in the medium (Example 1); settings: propionic acid 1% v/v
Procedure: The growth medium used for the first culture contained (initially) propionic acid (1% v/v), sodium acetate (8 g/L), yeast extract (7.5 g/L) and sea salts (25 g/L). The growth medium used for the second culture was the same but with the propionic acid omitted. Before use, the pH of each growth medium was adjusted to 6.5 by the addition of NaOH and the medium was then autoclaved at 121° C. for 1 hour.
The first and second cultures used the strain of Crypthecodinium cohnii available from the American Type Culture Collection and identified by the number 30772 (C. cohnii ATCC 30772).
The apparatus included a 5 L fermenter 10 of known type. The fermenter 10 was provided with a pH electrode 11 that was positioned in the fermenter 10 for monitoring the pH of the growth medium in the fermenter 10. The pH electrode 11 was connected via a control device 12 to a pump 13. The control device 12 was programmed to cause the pump 13 to pump acetic acid (50% v/v) from a reservoir 14 into the fermenter 10 when the pH electrode 11 detected a pH greater than a predetermined value (in this case pH 6.5 for both the first and second cultures).
If, during the culture, the pH fell below 6.5, the pH was brought back to 6.5 by adding KOH (2M). This was done automatically.
The fermenter 10 was also provided with a thermometer (not shown) and a heater (not shown) arranged to maintain the growth medium (and the C. cohnii 30772) at a desired temperature within the fermenter 10 (in this case 27° C. for both the first and second cultures).
The fermenter 10 was also provided with an aerator (not shown) that was connected to a source of air (not shown) for aerating the growth medium within the fermenter 10. An oxygen sensor (not shown) was positioned for measuring dissolved oxygen concentration in the growth medium within the fermenter 10. A stirrer (not shown) was provided for stirring the growth medium (and the C. cohnii 30772). The oxygen sensor was connected to the stirrer by a control device (not shown) for varying the speed of the stirrer in response to the oxygen concentration detected by the oxygen sensor so as to maintain the oxygen concentration at a desired level. For both the first and second cultures the aerator was set to aerate the culture at a rate of 1 volume of air per volume of culture per minute. The control device connected to the oxygen sensor and the stirrer was set so that the dissolved oxygen concentration was maintained above 30% of air saturation (the initial stirrer speed being 300 rpm).
To start each culture, 3.5 L of the appropriate growth medium was added to the fermenter 10. An inoculum of C. cohnii 30772 in 880 ml medium containing acetic acid/acetate, yeast extract and sea salt was then added to the fermenter (the preparation of the inoculum is described below). The fermenter 10 was then closed and the culture was heated to the desired operating temperature, aerated and stirred as described above.
In both the first and second cultures, the control device 12 caused the pump 13 to pump acetic acid into the fermenter 10 so as to maintain the pH at 6.5. This process, sometimes referred to as pH-stat operation, is described in detail in WO 01/04338. Briefly, it is believed that the Crypthecodinium cohnii metabolises the acetate in the growth medium (either in the form of acetate or acetic acid) as a carbon source. […]
During the first and second cultures, samples of the cultures were taken at time intervals. Each sample was analysed to determine dry cell weight. […]

[4] = 1% propionic acid versus without
[5] = propionic acid 1%, samples after 140-150 hours growth
[6] = first culture, acetic acid pH-stat

Q: Which results are given for `CCC(=O)O` [propionic acid]?
A: amount of total lipid produced relative to the fourth culture (without propionic acid) ([1]; FIG. 4): greater than twice; amount of docosahexaenoic acid produced relative to the fourth culture (without propionic acid) ([1]; FIG. 5): greater than twice; dry cell weight greater than in the fourth culture (without propionic acid) ([1]; later stages of the culture, FIG. 3): about 20%; increase in the amount of docosahexaenoic acid produced in the culture [2, 4]: about 85%; increase in the dry cell weight produced in the culture [2, 4]: over 60%; Cell dry wt [2, 5]: 75 g/L; DHA in lipid [2, 5]: 33 % w/w; Lipid in cells [2, 5]: 20 % w/w; Total DHA produced [2, 5]: 5 g/L; amount of DHA produced (overall) [3, 6]: 6 to 8 g/L; cellular lipid content [3, 6]: 55-65 % of the dry cell weight; content of docosahexaenoic acid [3, 6]: 35-40 % of the total lipid; forms of the microorganism present (cysts / swimmers), microscopic observation ([3]; first culture, after 24 hours): only non-motile cysts were present; dry cell weight in the first culture (with propionic acid) relative to the second culture (without propionic acid) ([3]; acetic acid/acetate carbon source, later stages of the cultures, FIG. 2): approximately double
